Where two headings read alike, the source gives them in different places.
What was measured:
endogenous mouse CB1 = target: T1, endogenous mouse CB1 (Mus musculus, UniProt P47746); experiment: THC-induced p-ERK1/2 in STHdhQ7/Q7 cells; format: cell-based; conditions: STHdhQ7/Q7, THC 10 µM; read-out: IC50, inhibition of THC-induced p-ERK1/2
T1 construct: a striatum-derived cell line that endogenously express murine CB1; host or cells: STHdhQ7/Q7

mice = experiment: Glucocorticoid (corticosterone) secretion in mice; format: in vivo; conditions: mice, highest dose tested 10 mg/kg
Protocol: Blood sampling was performed 2, 5, 8 and 24 h after dosing (n = 3 per sex per dose per sampling time). For blood sampling, mice were anaesthetized under isoflurane, and blood was collected by cardiac puncture. Blood was centrifuged, and plasma was taken and frozen at −80 °C until quantifications of corticosterone by GC–MS/MS.

healthy volunteers = experiment: Phase 1 multiple-ascending-dose (MAD) study, safety
Protocol: Four single oral dose levels (0.2, 0.6, 2 and 6 mg) were given in the morning on day 1 in the SAD study, and three oral doses (0.6, 2 and 6 mg) were given in the morning of day 1 to day 7 in the MAD study, to independent dose cohorts. […] Each dose cohort comprised eight volunteers (six (5/1) active and two (1/1) placebo per dose level).
In the MAD study, each randomized participant received a single oral dose per day on days 1 through 7. […] As an approximation, plasma PK concentrations and parameters were presented for all participants as if occurring on day 7.
Participants were admitted to the research clinic at midday before dosing (day −1). In the SAD study, they remained in-house until day 8 for PK and PD samples and safety assessments. In the MAD study, participants remained in-house until day 14 and returned to the research facility on an outpatient basis to have PK and safety assessments at 216 h and 264 h (day 16 and day 18) after their last dose (day 7). Safety monitoring (physical examinations, vital sign measurements, 12-lead ECGs, clinical safety laboratory tests and AE monitoring) were performed throughout the studies. Psychometrics tests (Bond & Lader VAS, Addiction Research Center Inventory (49-item short form) (ARCI-49) and Profile of Mood States 65 self-report items (POMS-65)) and the Columbia-Suicide Severity Rating Scale (C-SSRS) test were performed at baseline, before dose and at 4 h and 24 h after dose on day 1 and day 7 (MAD study, only) and C-SSRS only at 24 h.
All participants who had AEs, whether considered associated with the use of the investigational product or not, were monitored for as long as needed to determine resolution.

[1] = Phase 2a study, plasma pharmacokinetics; format: in vivo, human; conditions: for Cmax: human, plasma, in the range predicted from animal data
Protocol: THC and its metabolites (11-OH-THC and 11-COOH-THC) were assessed at the same timepoints. […] THC and its metabolites analyses were performed using PD dataset (n = 13 for both doses).
PK parameters for AEF0117 were subject to descriptive statistics separately for each treatment group.

[2] = 91-d repeated oral toxicity study in rats (GLP); format: in vivo; conditions: both sexes, Sprague Dawley SPF, rat, in vivo, rats
rats = experiment: 91-d repeated oral toxicity study in rats (GLP); format: in vivo; conditions: for change in blood urea level: male rats, week 14
[3] = SAD study, plasma pharmacokinetics; format: in vivo; conditions: human, oral; for Cmax: read-out: Cmax, mean (±SD); for half-life: SAD, evaluated 0-144 h, underestimated, read-out: t½, min-max
Protocol: For both SAD and MAD studies, the PK parameters were calculated using standard non-compartmental methods for those with sufficient plasma concentration data.

squirrel monkeys = experiment: i.v. self-administration of THC in squirrel monkeys; format: in vivo, Saimiri sciureus
Text: Two experimental models were used: (1) THC i.v. self-administration and (2) THC-induced reinstatement of THC seeking. These two approaches were used to model the maintenance of daily cannabis use and cannabis seeking after a period of abstinence.
For the self-administration experiments, four male squirrel monkeys (800–1,100 g; the estimated age was 17 years for three monkeys and 14 years for the fourth one) were used because this species reliably self-administers i.v. THC. Monkeys were trained to lever press for an i.v. injection of THC (4 µg kg^–1 per injection) under a 10-response fixed ratio schedule of drug injection (FR10; each 10th response on the lever produced an injection of THC, followed by a 60-s timeout). Number of lever presses and number of injections per session were recorded.

T1 sequence (P47746 whole entry): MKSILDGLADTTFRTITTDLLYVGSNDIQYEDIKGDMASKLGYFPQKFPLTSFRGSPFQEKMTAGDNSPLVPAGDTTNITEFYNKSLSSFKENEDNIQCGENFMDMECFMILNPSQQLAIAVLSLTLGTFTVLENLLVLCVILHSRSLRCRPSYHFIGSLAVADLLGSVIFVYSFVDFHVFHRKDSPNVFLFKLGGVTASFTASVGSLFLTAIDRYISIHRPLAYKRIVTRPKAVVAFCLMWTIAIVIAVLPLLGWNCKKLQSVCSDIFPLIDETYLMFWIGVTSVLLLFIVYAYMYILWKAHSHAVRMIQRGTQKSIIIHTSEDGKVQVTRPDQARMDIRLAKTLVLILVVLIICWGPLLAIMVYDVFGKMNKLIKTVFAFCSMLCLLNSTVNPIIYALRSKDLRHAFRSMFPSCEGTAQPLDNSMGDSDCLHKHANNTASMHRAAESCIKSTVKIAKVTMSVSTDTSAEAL

With `COc1ccc(CO[C@H]2CC[C@@]3(C)C(=CC[C@H]4[C@@H]5CC[C@H](C(C)=O)[C@@]5(C)CC[C@@H]43)C2)cc1` [AEF0117, 3β-(4-methoxybenzyloxy)pregn-5-en-20-one] the IC50 (endogenous mouse CB1) was 0.3 µM, the “Overall effect: increase in glucocorticoid secretion” value (mice) was “No” and the “Number of TEAEs” value (healthy volunteers; 0.6 mg/d 7 d) was 7 E. The “Number of participants with a TEAE leading to discontinuation” value (“Number … to discontinuation” for short) (healthy volunteers; 0.6 mg/d 7 d) was 1 (16.7) n (%), the “Number of participants with an SAE” value (healthy volunteers; 0.6 mg/d 7 d) was 0 n (%) and the “Number of participants with at least one TEAE” value (“Number … at least one TEAE” below) (healthy volunteers; 0.6 mg/d 7 d) was 3 (50.0) n (%). The “Participants with TEAE: Mild” value (healthy volunteers; 0.6 mg/d 7 d) was 2 (33.3) n (%), the “Participants with TEAE: Moderate” value (healthy volunteers; 0.6 mg/d 7 d) was 1 (16.7) n (%) and the “Participants with TEAE: Not related” value (healthy volunteers; 0.6 mg/d 7 d) was 1 (16.7) n (%). For the same compound, the “Participants with TEAE: Related” value (healthy volunteers; 0.6 mg/d 7 d) was 3 (50.0) n (%), the “Participants with TEAE: Severe” value (healthy volunteers; 0.6 mg/d 7 d) was 0 n (%) and the “TEAEs by SOC: Eye disorder” value (healthy volunteers; 0.6 mg/d 7 d) was 0 n (%). The “TEAEs by SOC: Gastrointestinal disorders” value (healthy volunteers; 0.6 mg/d 7 d) was 0 n (%), the “TEAEs by SOC: General disorders and administration site conditions” value (healthy volunteers; 0.6 mg/d 7 d) was 1 (16.7) n (%) and the “TEAEs by SOC: Investigations” value (healthy volunteers; 0.6 mg/d 7 d) was 0 n (%). For the same compound, the “TEAEs by SOC: Metabolism and nutrition disorders” value (healthy volunteers; 0.6 mg/d 7 d) was 1 (16.7) n (%), the “TEAEs by SOC: Nervous system disorders” value (healthy volunteers; 0.6 mg/d 7 d) was 2 (33.3) n (%) and the “TEAEs by SOC: Skin and subcutaneous tissue disorders” value (healthy volunteers; 0.6 mg/d 7 d) was 1 (16.7) n (%). For the same compound, the “Number of TEAEs” value (healthy volunteers; 2 mg/d 7 d) was 3 E, the “Number … to discontinuation” value (healthy volunteers; 2 mg/d 7 d) was 0 n (%) and the “Number of participants with an SAE” value (healthy volunteers; 2 mg/d 7 d) was 0 n (%). The “Number … at least one TEAE” value (healthy volunteers; 2 mg/d 7 d) was 2 (33.3) n (%), the “Participants with TEAE: Mild” value (healthy volunteers; 2 mg/d 7 d) was 2 (33.3) n (%) and the “Participants with TEAE: Moderate” value (healthy volunteers; 2 mg/d 7 d) was 0 n (%). The “Participants with TEAE: Not related” value (healthy volunteers; 2 mg/d 7 d) was 1 (16.7) n (%), the “Participants with TEAE: Severe” value (healthy volunteers; 2 mg/d 7 d) was 0 n (%) and the “TEAEs by SOC: Eye disorder” value (healthy volunteers; 2 mg/d 7 d) was 0 n (%). The “TEAEs by SOC: Gastrointestinal disorders” value (healthy volunteers; 2 mg/d 7 d) was 1 (16.7) n (%), the “TEAEs by SOC: General disorders and administration site conditions” value (healthy volunteers; 2 mg/d 7 d) was 0 n (%) and the “TEAEs by SOC: Investigations” value (healthy volunteers; 2 mg/d 7 d) was 1 (16.7) n (%). For the same compound, the “TEAEs by SOC: Metabolism and nutrition disorders” value (healthy volunteers; 2 mg/d 7 d) was 0 n (%), the “TEAEs by SOC: Nervous system disorders” value (healthy volunteers; 2 mg/d 7 d) was 0 n (%) and the “TEAEs by SOC: Skin and subcutaneous tissue disorders” value (healthy volunteers; 2 mg/d 7 d) was 0 n (%). For the same compound, the “Number of TEAEs” value (healthy volunteers; 6 mg/d 7 d) was 6 E, the “Number … to discontinuation” value (healthy volunteers; 6 mg/d 7 d) was 0 n (%) and the “Number of participants with an SAE” value (healthy volunteers; 6 mg/d 7 d) was 0 n (%). For the same compound, the “Number … at least one TEAE” value (healthy volunteers; 6 mg/d 7 d) was 2 (33.3) n (%), the “Participants with TEAE: Mild” value (healthy volunteers; 6 mg/d 7 d) was 2 (33.3) n (%) and the “Participants with TEAE: Moderate” value (healthy volunteers; 6 mg/d 7 d) was 1 (16.7) n (%). The “Participants with TEAE: Not related” value (healthy volunteers; 6 mg/d 7 d) was 2 (33.3) n (%), the “Participants with TEAE: Related” value (healthy volunteers; 6 mg/d 7 d) was 2 (33.3) n (%) and the “Participants with TEAE: Severe” value (healthy volunteers; 6 mg/d 7 d) was 0 n (%). The “TEAEs by SOC: Eye disorder” value (healthy volunteers; 6 mg/d 7 d) was 1 (16.7) n (%), the “TEAEs by SOC: Gastrointestinal disorders” value (healthy volunteers; 6 mg/d 7 d) was 0 n (%) and the “TEAEs by SOC: General disorders and administration site conditions” value (healthy volunteers; 6 mg/d 7 d) was 1 (16.7) n (%). The “TEAEs by SOC: Investigations” value (healthy volunteers; 6 mg/d 7 d) was 0 n (%), the “TEAEs by SOC: Metabolism and nutrition disorders” value (healthy volunteers; 6 mg/d 7 d) was 0 n (%) and the “TEAEs by SOC: Nervous system disorders” value (healthy volunteers; 6 mg/d 7 d) was 2 (33.3) n (%). For the same compound, the “TEAEs by SOC: Skin and subcutaneous tissue disorders” value (healthy volunteers; 6 mg/d 7 d) was 1 (16.7) n (%), the “plasma concentration below LLOQ after washout” value ([1]; 0.06 mg first, >=14 d later, 3 participants) was 0.0002 to 0.0093 ng/mL and the “mean concentration 24 h after 5th dose higher than 24 h after 1st dose” value ([1]; Phase 2a, 0.06 and 1 mg) was 30-50%. The Cmax ([1]; 0.06 mg) was no less than 0.15 ng/mL, the Cmax ([1]; 1 mg) was no less than 1.5 ng/mL and the NOAEL at 91 day ([2]; oral, 91-day, highest dose tested) was 65 mg/kg/day. The NOAEL at 91 d ([2]; 91-d repeated oral) was greater than 65 mg/kg/day, the “change in thymus weight, absolute value” (rats; female rats, 65 mg/kg/day, Day 122, vs vehicle) was -17% and the “change in blood urea level” value (rats; 20 mg) was “+13%”. For the same compound, the “change in blood urea level” value (rats; 65 mg) was “+10%”, the Cmax ([3]; both sexes, SAD Day 1, 2 mg) was 14.7 ± 4.3 ng/mL and the Tmax ([3]; both sexes, SAD Day 1, 2 mg, read-out: tmax, median (range)) was 3 h. It also gave a half-life ([3]; both sexes, 0.6 mg) of 75.9 to 229 h, a Tmax ([3]; healthy volunteers, read-out: Tmax) of roughly 3 h and a Cmax ([3]; SAD Day 1, 0.2 mg) of 1.3 ± 0.3 ng/mL. The Tmax ([3]; SAD Day 1, 0.2 mg, read-out: tmax, median (range)) was 3 h, the Cmax ([3]; SAD Day 1, 0.6 mg) was 3.5 ± 1 ng/mL and the Tmax ([3]; SAD Day 1, 0.6 mg, read-out: tmax, median (range)) was 2.5 h. The Cmax ([3]; SAD Day 1, 6 mg) was 38.6 ± 8.1 ng/mL, the Tmax ([3]; SAD Day 1, 6 mg, read-out: tmax, median (range)) was 2 h and the half-life ([3]; 2 mg) was 84.4 to 180 h. For the same compound, the half-life ([3]; 6 mg) was 69.3 to 162 h, the Tmax ([3]; healthy volunteers, SAD and MAD, read-out: median tmax) was 2 to 3 h and the “i.v. self-administration of THC” value (squirrel monkeys; 15 µg kg^−1 oral) was “significantly reduced”. For the same compound, the “% Inhibition” value (squirrel monkeys; Self-administration of THC) was 80%, the ID50 (squirrel monkeys; Self-administration of THC) was 0.005 mg/kg and the ID100 (squirrel monkeys; Self-administration of THC) was 0.015 mg/kg.
